The values that follow come from PMC5927452, “Gadoxetic acid–enhanced magnetic resonance imaging to predict paritaprevir-induced hyperbilirubinemia during treatment of hepatitis C” (PLoS ONE, 2018).

SMILES strings stand for the structures.

The conditions of series [1]: regimen of paritaprevir/ritonavir, ombitasvir, and dasabuvir with or without ribavirin; mainly indirect bilirubin, without elevations in liver enzymes; cited from earlier work. As to the method:
The regimen of ombitasvir, paritaprevir, and ritonavir (OBV/PTV/r) without or with ribavirin has been available in Japan since 2015 and 2016, respectively. Ritonavir is included for its booster effect on paritaprevir by cytochrome P450 3A inhibitor. Paritaprevir, a nonstructural (NS)3/4A protease inhibitor, is mainly eliminated via hepatobiliary excretion. It is carried into the hepatocyte by hepatic transporters including organic anion–transporting polypeptides (OATP)1B1 and OATP1B3, located at the sinusoidal membranes of hepatocytes. These transporters also carry unconjugated bili ...

The nature of series [2]: Plasma paritaprevir concentration 7 d after start of OBV/PTV/r treatment (LC-MS/MS). Format: in vivo, human. As to conditions: OBV/PTV/r 25/150/100 mg orally once daily; for Log10 Ctrough: fasting steady-state plasma trough, day 7, LC-MS/MS, mean ± SD; for AUC (AUC0-6 h): plasma, day 7, 0-6 h after dosing with breakfast, trapezoidal rule. As for the experimental part: This was a single-center, exploratory, prospective study. The study was approved by both the ethical review board of Juntendo University Faculty of Medicine (Jundai-Irin No-2016135) and the Ethics Committee for Human Genome/Gene Analysis Research at Kanazawa University Graduate School of Medical Sciences (No. 2016–004, serial No. 432) and was carried out in accordance with the 1964 Declaration of Helsinki and its later amendments. The study was also registered with UMIN clinical trials as UMIN000022587. Written informed consent was obtained from all patients before enrollment. The study enrolled adult patients with HCV genotype 1b chronic hepatitis or compensated liver cirrhosis using OBV/PTV/r (VIEKIRAX®; AbbVie, Inc., North Chicago, Illinois, USA) at Juntendo University Nerima Hospital. Analysis of resistance-associated variations of the NS5A Y93H substitutions in the baseline sequence was performed in a commercial laboratory (SRL, Inc., Tokyo, Japan), and the patients with the mutant type of NS5A Y93H were excluded. Patients with renal dysfunction (estimated glomerular filtration rate < 40 ml/min/1.73 m^2) were excluded. A precaution in OBV/PTV/r treatment is coadministration of statin medications. Patients taking simvastatin and atorvastatin were excluded; no other patients were taking any other type of statin. Consequently, this study involved 27 consecutive Japanese patients (8 males and 19 females), with ages ranging from 30 to 83 years, treated between June 2016 and July 2017. Twenty patients with chronic hepatitis and seven patients with liver cirrhosis were included. All patients were treated with OBV/PTV/r, at a dose of 25/150/100 mg, administered orally once daily.
Fasting steady-state plasma trough concentrations (Ctrough) of paritaprevir were determined from blood samples obtained 7 d after the start of treatment. The patients were given the same breakfast of 338 kcal, with 15% of calories from protein, 60% from fat, and 25% from carbohydrates. After the meal, the patients took the drugs orally. Paritaprevir concentrations at 2, 4, and 6 h after dosing were determined. Blood samples were centrifuged within 30 min at 1,500 rpm for 10 min at 4°C, and plasma concentrations of paritaprevir were determined using liquid chromatography–tandem mass spectrometry, as described. The area under the plasma concentration curve from 0 to 6 h (AUC0–6 h) of paritaprevir after dosing was calculated using the trapezoidal rule.

The mark [3] stands for this setting: patients with hyperbilirubinemia (N = 7).
The mark [4] stands for this setting: patients without hyperbilirubinemia (N = 20).

`Cc1cnc(C(=O)N[C@H]2CCCCC/C=C\[C@@H]3C[C@@]3(C(=O)NS(=O)(=O)C3CC3)NC(=O)[C@@H]3C[C@@H](Oc4nc5ccccc5c5ccccc45)CN3C2=O)cn1` [paritaprevir]: the “patients with elevation in total bilirubin (≥ 2.25 mg/dl)” value in series [1] is listed as 23%. Also, in series [2] (setting [3]), the “Log10 Ctrough” value amounted to 2.768 ± 0.747 ng/ml and the “AUC (AUC0-6 h)” value amounted to 37224 ± 21015 ng·h/mL. In series [2] (setting [4]), the “Log10 Ctrough” value was 2.169 ± 0.484 ng/ml and the “AUC (AUC0-6 h)” value is 31441 ± 21727 ng·h/mL.
